Measured values as given in a melting point compilation (Tetko et al.; mined from patent text by program, amines drawn as free bases though some values may be those of a salt).

melting point [°C] | Compound
166 to 167 | Cc1oc(-c2ccccc2)nc1COc1ccc(COc2ccc(CC(=O)O)cc2)cc1
220 to 222 | CCOC(=O)c1cn(C2COC2)c2cc(F)c(F)c(OCc3ccccc3)c2c1=O
237 to 238 | O=C1CC(C(=O)NC(Cc2ccc(C(F)(F)F)cc2)C(O)c2ccc(F)cc2)c2ccccc21 (racemic)
118 | Fc1ccc(-c2cc(Cl)nc3ccccc23)cc1
308 to 310 | CCCn1c(=O)c2c(NC)n[nH]c2n(Cc2ccc(Br)cc2)c1=O
267 to 273 | COCCOc1cc2nncc(Oc3cc(O)c(C)cc3F)c2cc1OC
> 240 | COc1cc(Nc2c(C#N)cnc3sc(-c4ccc(C=O)cc4)cc23)c(Cl)cc1Cl
145 to 147 | COc1ccccc1Oc1cccc2c1NC(=O)C2
92 to 94 | CCOC(=O)COc1ccc2cc(Br)ccc2c1Cl
52 | CCCc1ncc(C=CC=CC(=O)OCC)s1
125 to 128 | COc1cc(C)ccc1-c1nc(C)c(-c2cccnc2)[nH]1
131 to 133 | COc1ccc2c(c1)c(Cc1nc(-c3ccc4ccccc4c3)cs1)c(C)n2C(=O)c1ccc(Cl)cc1
184 to 190 | N#Cc1c(N2CCc3ccccc3CC2)nc2n(c1=O)CCC2
208 | Cc1nc2n(c(=O)c1CCN1CCC(c3n[nH]c4cc(F)ccc34)CC1)CCS2
155 | CC(=O)OC1CSC(Oc2ccc(-c3cccnc3)nc2Cl)C(OC(C)=O)C1OC(C)=O (centres undefined)
202 to 204 | COc1cc(CC(C#N)=CNc2ccccc2)cc(OC)c1N(C)C(C)=O
186 to 187 | OC1(c2cccc(Cl)c2)C2=NCCCN2c2ccccc21 (centres undefined)
164 to 167 | COc1ccc(CC[C@H](N)C(=O)O)cc1F
105 to 106 | COc1ccc(C(=O)N2CCN(CCc3ccc(Cl)cc3)CC2)cc1
160 to 163 | COc1cccc2c(O)cnnc12
> 300 | Cc1nc(NC(=O)Nc2ccc(F)cc2)sc1C(=O)NCc1ccccc1
142 to 144 | CCCN(CCC)Cc1cnc(-c2ncn3c2CN(C)C(=O)c2sccc2-3)o1
189 to 190 | Cc1cc(C)c2ncc(NC(=O)Cc3cc(C(C)(C)C)c(O)c(C(C)(C)C)c3)c(-c3ccccc3Cl)c2c1
112 to 113 | COc1ccc(C=O)c(Cl)c1Cl
87 to 88 | CN(C)C(=O)c1ccccc1Sc1ccc(Cl)cc1C=O

melting point [°C] | Compound
220 to 222 | O=C(O)C(Cc1ccc(Cl)cc1Cl)c1c(Cl)cccc1Cl (centres undefined)
200 to 201 | CS(=O)(=O)NCCCCn1c(CC2CC2)nc2c(N)nc3ccccc3c21
115 to 116 | O=C(Nc1ccc2c(c1)CCN(C(=O)OCc1ccccc1)C2)OCc1ccccc1
168 to 169 | CCOCc1nc2c(N)nc(C)c(C)c2n1CCC1CCN(C(=O)C(C)C)CC1
56 to 57 | CCOC(=O)CCCCCCCn1cnc(-c2ccccc2)c1
38 to 39 | CC(C)(C)c1cc(C=O)c(O)cc1Cl
70 | Clc1ccccc1C1(c2ccc(-c3ccccc3)cc2)CO1 (centres undefined)
176 to 177 | CS(=O)(=O)c1ccc(C(=O)c2cc(Cl)ccc2N)cc1
202 | Cc1nn(CCOc2ccc(C=C3SC(=O)NC3=O)cc2)c(=O)c2ccccc12
197 to 199 | O=C1c2cccc(O)c2C2(OCCS2)c2c(O)cccc21
230 to 233 | CC(C)(COc1ccc(-n2cc(C(=O)O)cn2)cc1C#N)C(=O)O
172 | COCCOc1cc(NC(=O)OC(C)(C)C)c(NC(=O)CC(=O)c2cccc(I)c2)cc1C#Cc1ccccc1
210 to 211 | O=C(O)c1cccc(-c2ccc3c(c2)N(c2cc(Cl)cc(Cl)c2)CC3)c1
145 to 147 | COC(=O)c1cc(=O)c2cc(OC)cc(N)c2o1
154 to 155 | COC(=O)NNC(=O)Nc1ccccc1
186 to 188 | Cc1ccc(C(=O)NC(NC(=NC#N)Nc2cncnc2)C(Cl)(Cl)Cl)cc1 (centres undefined)
254 to 257 | CC(c1oc2ccccc2c(=O)c1-c1ccccc1)n1cnc2c(N)ncnc21 (centres undefined)
> 300 | O=c1c2ccc(Cl)cc2nc2n1CS(=O)(=O)N2
181 to 182 | Oc1ccc(I)c(-c2cc(O)ccc2I)c1
222 to 223 | O=C(Nc1nccs1)c1nc(-c2cccc3ccccc23)[nH]c1-c1ccc(C(F)(F)F)cc1
> 80 | CC(C)(C)c1cc(-c2nnc(NC(N)=S)s2)cc(C(C)(C)C)c1O
215 | CCSc1nc2c(cc1F)c(=O)c(C(=O)O)cn2C(C)(C)C
170 to 173 | COc1nc(O)c(C(=O)O)nc1Cl
95 to 97 | CCOc1ccc(C(c2ccc(C(C)(C)C)cc2)C(CC)[N+](=O)[O-])cc1 (centres undefined)
69 to 74 | CC(C)CCC(O)C(CC1CCCCC1)NC(=O)C(Cc1c[nH]cn1)N(C)C(=O)C(Cc1ccccc1)OC(=O)N(C)CCN(C)C(=O)N1CCOCC1 (centres undefined)

melting point [°C] | Compound
29 to 30 | O=[N+]([O-])c1c(Cl)c(Cl)cc2c1OC(F)(F)O2
158 to 159 | Cc1ccccc1Oc1cc(Cl)ccc1C(=O)O
125 to 126 | CC(C)O[Si](C)(C)C[C@](O)(c1ccc(F)cc1F)[C@@H](C)n1ncn(-c2ccc(OCC(F)(F)C(F)F)cc2)c1=O
113 to 116 | CN1Cc2ccccc2C(O)(Cc2ccc(Cl)cc2F)C1 (centres undefined)
62 to 64 | Nc1ccccc1OCc1ccc2ccccc2n1
163 to 166 | c1ccc2c(c1)Cc1cc(C3(Cn4ccnc4)OCCO3)ccc1-2
260 to 261 | O=C(Oc1ccc(Cl)c(Cl)c1)c1cc2c(cn1)[nH]c1ccccc12
54 to 55 | CCCCCCCCCCCCOCC(CO)(CO)COCCCCCCCCCCCC
188 to 189 | CCOC(=O)c1cccc2nc(CC)n(Cc3ccc(-c4ccccc4-c4nnn[nH]4)cc3)c12
180 to 182 | O=C(O)COC(=O)c1c(Cl)cccc1Cl
227 to 228 | COc1ccc(C(N)=O)c(OC)c1-c1ccc(C[C@H](NC(=O)c2c(Cl)cccc2Cl)C(=O)O)cc1
219 to 221 | N#CC(C(=O)Nc1ccc(Cl)cc1)C(=O)c1ccc[nH]1 (centres undefined)
83 to 84 | Cc1cc(C(C)(C)C)c(O[Si](C)(C)N=C=S)c(C(C)(C)C)c1
74 to 76 | Cc1nnc(-c2ccccc2O)o1
147 to 148 | CCOC(=O)c1c(CCl)nc2cc(OC)c(OC)cc2c1-c1ccc(OC)c(OC)c1
108 | CCCCc1c(Cc2ccc(-c3ccccc3-c3nnn[nH]3)cc2)c(C(=O)O)nn1CCCC
82 to 83 | COc1ccc(S(=O)(=O)NCCc2ccc(OCC(=O)O)cc2)cc1
145 to 148 | COC(=O)CCc1nc(I)ccc1O
112 | CCOC(=O)CC(=O)c1cc(Oc2ccccc2)c(NS(C)(=O)=O)cc1O
183 to 185 | Cc1ccc2c(-c3cc(C(C)(C)C)c(O)c(C(C)(C)C)c3)nn(CCO)c2n1
120 to 121 | COc1cc(OC)c(C(=O)n2cccc2Br)cc1OC
94.5 to 96.5 | CCN(CC)CCNc1ncc2cc(-c3c(Cl)cccc3Cl)c(NC(=O)NC(C)(C)C)nc2n1
161 | COC(=O)C1Cc2cccc(OC)c2N1S(=O)(=O)c1ccc(I)cc1 (centres undefined)
69 to 72 | CCCCCCCCCCc1ccc(CCC(N)(CO)CCO)cc1 (centres undefined)
82 to 84 | CCCCCCC(=O)N(CCCCn1ccnc1)C1=Nc2cccc3cccc1c23

melting point [°C] | Compound
73 to 75 | CC(C)[Si](C#Cc1ccc2cc3c(cc2c1)Cc1cc2cc(C#C[Si](C(C)C)(C(C)C)C(C)C)ccc2cc1C3)(C(C)C)C(C)C
115 to 118 | COc1cc(N)c2nccc(C)c2c1Oc1ccc(Cl)cc1Cl
101 to 102 | NCC1CC(n2cc(-c3cccc(F)c3)c3c(N)ncnc32)C1 (centres undefined)
160 to 162 | O=S(=O)(c1cccc(C(F)(F)F)c1)c1cc(Br)nc(N2CCNCC2)c1
99 to 100 | CCOC(=O)C1=C(C)C2=C(CC1)SCCC2=O
229 to 232 | COC(=O)CCCCC(=O)Nc1c(I)c(C(=O)O)c(I)c(N(C)C(C)=O)c1I
236 to 238 | CC(=O)Nc1ccc2nc3ccccc3c(-c3cc(C)ccc3C)c2c1
212 to 213 | Nc1ccn2nc(-c3ccccc3)nc2c1
234 to 236 | CC(C)Oc1ccc2nc3ccc(C#N)cn3c(=O)c2c1
89 to 91 | CCCCCCCCCCCCCCCCOc1ccc(-c2nc(CC(=O)O)c(OCC)o2)cc1
171 to 172 | CC(=O)N1CN(C(=O)c2c(F)cccc2F)C(=O)N(c2ccc(Cl)cc2)C1
252 to 254 | Nc1c(F)c(N2CCCC(n3ccnn3)C2)c(F)c2c1c(=O)c(C(=O)O)cn2C1CC1 (centres undefined)
146 to 147 | Cc1ccc(C[C@@H]2CN(CCCN3C(=O)c4ccccc4C3=O)CCN2C(=O)c2cc(C(F)(F)F)cc(C(F)(F)F)c2)cc1C
227 | O=C(Nc1cccc(S(=O)(=O)NCc2ccccc2)c1)c1cnn2c(C(F)(F)F)cc(-c3ccc(C(F)(F)F)cc3)nc12
140 to 142 | Cc1ccc(S(=O)(=O)OCC2COc3cccc4[nH]c(=O)n2c34)cc1 (centres undefined)
80 to 81 | CC(C)CNC(=O)C=CC=CCCCCCCCOc1cccc(Cl)n1
167 to 171 | c1ccc(C(OC2CCN(CCCOc3ccc(-c4nnn[nH]4)cc3)CC2)c2ccccc2)cc1
80 to 84 | Cc1ccc(-c2cc([Si](C)(C)C)oc2-c2ccc(Cl)cc2)cc1
221 | CN1CCN(Cc2c(Cl)ccc(C(=O)O)c2Cl)C1=O
83 to 84 | COCCNC(=O)c1cccc(-c2cccc3oc(Cc4ccc(F)c(F)c4)cc23)c1
90 to 91 | CCCCCCCCCCCCCCOc1ccc(CC(=O)NCCc2ccccn2)cc1
64 to 66 | CN(C)CCCSc1cccc2c1NC(=O)CC2c1ccccc1 (centres undefined)
247 to 248 | COc1ccc(Cl)cc1-n1c(N)nnc1-c1ccc(C(F)(F)F)cc1

Compound | melting point [°C]
CCCN1CCC23c4cccc(OC)c4OC2C2CCC3(C1=O)C(C(=O)OC)C2 (centres undefined) | 126 to 128
